The source of these data is paper PMC2999418, “Biological Activity and Binding Site Characteristics of the PA1b Entomotoxin on Insects from Different Orders” (Journal of Insect Science, 2007).

In one data set the test system is Sitophilus oryzae. Particulars: three natural S. oryzae strains able to feed on pea seeds; ref Grenier et al. 1997; cited from earlier work. The text has this:
S. oryzae strains resistant to PA1b exist naturally.

The target in data set [1] is PA1b binding protein on membrane extracts. In words: 125I-PA1b binding (competition) on insect membrane extracts. Also on record: species or system Trichogramma pretiosum. To be noted: T. pretiosum membrane extracts; competition with purified 3741 isoform. As to the method: (§1) The isolation of membrane proteins for binding studies was performed as described by Gressent et al. ([2003]). For PA1b degradation tests, insect extracts were prepared as follows, 1 g of insects were ground with a mortar and pestle in liquid nitrogen. The resulting powder was resuspended in 2 ml of extraction buffer (20 mM Tris-HCl pH 8; 0.25 M sucrose; 2 mM MgCl2). The slurry was centrifuged for 2 min at 1000 g, and the supernatant was stored at -2O°C until required. All the operations were performed at 4°C.
(§2) The peptidic toxin PA1b-3471 isoform was labelled with I^125 to a specific radioactivity of about 900 Ci.mmor^-1, and then used for binding studies with membrane extracts, according to Gressent et al. ([2003]).
(§3) PA1b binding activity was present in all insect species, except for the resistant weevil strains and the pea specific pest Bruchus pisorum, regardless of the sensitivity or insensitivity of these insects to PA1b toxicity, as evaluated from our insect bioassays. […] The relative abundance of the binding sites was also slightly different in this group of species, varying from 10 pmol/mg of protein for T. pretiosum to a maximum of 79 pmol/mg of protein for M. persicae.

Data set [2] has the same target. The description is as above. More on the design: species or system Tribolium castaneum. To be noted: T. castaneum membrane extracts; competition with purified 3741 isoform. As to the method:
as §1, §2, §3

In another data set the test system is Mamestra brassicae. In words: Cabbage moth larval toxicity test on artificial medium with toxin. Particulars: 1000 µg PA1b per g of diet, larvae L1 to pupa; data not shown. It counts as in vivo. As for the experimental part: The cabbage moth Mamestra brassicae (Lepidoptera) was grown on the artificial medium described by Poitout and Bues ([1974]). PA1b was added to this media and the mortality of larvae (from L1 to pupa) was monitored daily.
(§4) All toxicity assays were carried out using a mixture of PA1b isoforms (98% purity by HPLC). All tests were performed on at least 30 insects for assays and for control test (without toxin), except for the three aphid species (50 insects) and for Trichogramma (more than 300 eggs by assays). When adults were used, the insects were synchronized at the imaginal molt. The statistical analyses were performed using the JMP software (SAS, Grégy-sur-Yerres FRA).

The subject of data set [3] is D. melanogaster protein extracts. In words: PA1b degradation assay with total insect protein extract. The class given is in vitro ADME, Drosophila melanogaster. To be noted: 200 µg D. melanogaster (L3) total protein extract, 10 µg PA1b, pH 3 to 9, 30°C, one night incubation; C18 HPLC; data not shown. As for the experimental part: as §1
PA1b degradation assays were performed using 10 µg of peptide (PA1b isoform mixture) in a final volume of 100 µl buffer. […]
(§5) For all assays, after a one night incubation, 150 µl of methanol were added to the mixture and incubated for 60 min at 4°C. […] PA1b peptide isoforms were detected by their absorbance at 210 nm, quantified by the measurement of the peak area and with reference to known quantities of pure peptide isoform used as standards.

For another data set, the system named is Ephestia kuehniella. To be noted: ref Delobel et al 1998; cited from earlier work. As for the experimental part:
Ephestia kuehniella was previously found to be sensitive to the toxin ([Delobel et al 1998]). In contrast, 1000 µg PA1b per g of diet had no effect on the cabbage moth Mamestra brassicae, either on the mortality or on the development and ecdysis of the insects (data not shown).

For data set [4], the target named is PA1b binding protein on membrane extracts. Particulars: ref Gressent et al (2003), cited from earlier work. The text has this:
Table 1. Affinity (Kd) and relative abundance (Bmax) of the PA1b binding protein on membrane extracts from different insect species and strains. | column: Kd (nM); Bmax (pmol/mg of protein) || Data obtained from competition experiments, using the purified […] isoform as competitor, are shown in Table 1. PA1b binding activity was present in all insect species, except for the resistant weevil strains and the pea specific pest Bruchus pisorum, regardless of the sensitivity or insensitivity of these insects to PA1b toxicity, as evaluated from our insect bioassays. […] The relative abundance of the binding sites was also slight ...

Data set [5] shares this target. In words: 125I-PA1b binding (competition) on insect membrane extracts. More on the design: species or system Myzus persicae. To be noted: M. persicae membrane extracts; competition with purified 3741 isoform. As to the method: as §1, §2, §3
A further data set concerns Culex pipiens. In words: Mosquito larval bioassay, toxin added to water. Particulars: 250 µg.ml^-1 of water. It counts as in vivo. As for the experimental part:
The mosquito bioassay was performed on larvae of Culex pipiens (Diptera) in water. The toxin was added directly to the water, and the mortality of L3 larvae was recorded daily.
as §4

Data set [6] concerns the target PA1b binding protein on membrane extracts. In words: 125I-PA1b binding (competition) on insect membrane extracts. Also on record: species or system Harmonia axyridis. To be noted: H. axyridis membrane extracts; competition with purified 3741 isoform. As to the method: as §1, §2, §3
The test system of the next data set is pronase E type XIV. In words: PA1b degradation assay with commercial protease. The class given is in vitro ADME. Particulars: 10 µg pronase E, 37°C, one night incubation, C18 HPLC. As for the experimental part: PA1b degradation assays were performed using 10 µg of peptide (PA1b isoform mixture) in a final volume of 100 µl buffer. Assays with commercially (SIGMA, www.sigmaaldrich.com) available enzymes were performed in Glycine-NaOH buffer (20 mM pH 9) at 3O°C for proteinase K (E.C. 3.4.21.64), Tris-HCl buffer (20 mM pH 7.5) + EDTA 10 mM at 37°C for pronase E type XIV, MES-NaOH buffer (20 mM pH 6.2) at 25°C for papain (E.C. 3.4.22.2), Tris-HCl buffer (20 mM pH 7.8) at 25°C for chymotrypsin (E.C. 3.4.21.1), and Tris-HCl buffer (20 mM pH 7.6) at 25°C for trypsin (E.C. 3.4.21.4). Assays were done with 10 µg of each enzyme, and control assays were performed with 10 µg of enzymes denaturated by 10 min boiling. Assays with insect extracts were carried out in 20 mM buffers from pH 3 to 9 (Glycine-HCl, pH 3; sodium acetate pH 4-5; MES-NaOH pH 6; Tris-HCl pH 7-8; Glycine NaOH pH 9) at 3O°C. […]
as §5

Where two headings read alike, the source gives them in different places.

Regarding “ASCNGVCSPFEMPPCGTSACRCIPVGLVIGYCR NPSG (bicyclic or more) [PA1b, plant peptide of 37 amino acids purified from pea (Pisum sativum) seeds; entomotoxic cystine-knot peptide with three disulfide bonds]”, the “resistance of pea-feeding S. oryzae strains to the purified toxin” value with Sitophilus oryzae is given as “fully resistant”. Further, the Kd is 56 nM in data set [1]; 11 nM in data set [2]; 2 to 4.5 nM in [4] (S. oryzae strains WAA42, Benin, Bouriz, membrane extracts); 62 nM in data set [5]; 52 nM in [6]. Moreover, the “effect on mortality, development and ecdysis” value in the data set on Mamestra brassicae is given as “no effect”. In addition, the “recovered PA1b after incubation with insect proteins versus heat-denatured control” value in data set [3] was “without any difference between control and test assays”. Also, in the data set with Ephestia kuehniella, the “sensitivity to the toxin” value is listed as “sensitive”. For the same sequence, the Kd / binding entry in data set [4] (S. oryzae resistant strains Mex1, GV, China, ISOR3, membrane extracts) is on record as “no binding detectable”. For the same sequence, the “survival of L3 larvae” value in the data set on Culex pipiens (after one day) is recorded as 100%; in the data set with Culex pipiens (after two days), 0%. The “PA1b recovered after pronase E treatment, relative to control” value with pronase E type XIV (10 µg PA1b, Tris-HCl pH 7.5 + EDTA 10 mM) is on record as 20 % of the control. The “Recovered PA1b, Assays” value in the data set with pronase E type XIV (10 µg PA1b isoform mixture in 100 µl Tris-HCl 20 mM pH 7.5 + EDTA 10 mM, UV 210 nm, mean of triplicates) turned out to be 1.7 µg.
